# From patent US20240116985A1, “STAPLED PEPTIDES AND METHODS THEREOF” (priority 2020, published 2024)
# Where two headings read alike, the source gives them in different places.
# Tests used:
# Solubility in PBS = format: physicochemical; conditions: for solubility at 15 min: Solubility (uM)
# Description: After ultracentrifugation of the PBS solution, the supernatant was analyzed by HPLC and compared to an HPLC injection 50 μM peptide DMSO solution. Solubility was determined by: [(Area of PBS peak)/(Area of DMSO peak)]*50 uM.
# CHI Log D procedure = format: physicochemical
# [1] = biological target: T1, beta-catenin/TCF4 engagement (Homo sapiens, UniProt P35222); experiment: Nano-BRET target engagement assay (B-cat-Halo & TCF4-Luc in HEK293 cells); format: cell-based
# T1 construct: expressed in transfected cells; host or cells: HEK293
# T1 sequence (P35222 1-781): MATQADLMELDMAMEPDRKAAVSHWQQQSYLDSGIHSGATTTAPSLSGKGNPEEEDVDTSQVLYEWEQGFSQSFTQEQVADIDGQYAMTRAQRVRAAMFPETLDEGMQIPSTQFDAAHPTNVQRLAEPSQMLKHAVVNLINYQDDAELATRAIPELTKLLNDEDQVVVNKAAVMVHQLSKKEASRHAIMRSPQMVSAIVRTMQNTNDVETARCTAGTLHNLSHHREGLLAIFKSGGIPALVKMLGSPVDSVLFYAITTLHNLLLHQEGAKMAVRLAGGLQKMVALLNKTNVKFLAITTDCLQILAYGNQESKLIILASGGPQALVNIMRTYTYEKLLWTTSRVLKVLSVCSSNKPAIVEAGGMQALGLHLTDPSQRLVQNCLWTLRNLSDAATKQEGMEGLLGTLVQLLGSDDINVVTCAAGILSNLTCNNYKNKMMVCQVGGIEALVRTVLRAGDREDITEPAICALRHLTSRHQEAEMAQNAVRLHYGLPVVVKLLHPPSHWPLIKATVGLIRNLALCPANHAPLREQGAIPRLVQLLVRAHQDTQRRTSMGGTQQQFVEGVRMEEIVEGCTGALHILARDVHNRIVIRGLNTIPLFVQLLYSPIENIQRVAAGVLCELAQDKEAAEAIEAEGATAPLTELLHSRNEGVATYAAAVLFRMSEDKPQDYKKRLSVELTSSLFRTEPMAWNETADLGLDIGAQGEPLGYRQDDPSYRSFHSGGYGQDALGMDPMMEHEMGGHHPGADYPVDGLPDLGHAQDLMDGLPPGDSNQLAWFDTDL
# [2] = biological target: T2, full-length beta-Catenin (Uniprot ID P35222) (Homo sapiens, UniProt P35222); experiment: Fluorescence polarization IC50 (beta-catenin / 5FAM-TCF4 10-53 competition); format: binding
# T2 construct: 10 nM full-length beta-Catenin (Uniprot ID P35222)
# T2 sequence (P35222 1-781): T1 sequence (P35222 1-781)
solubility at 15 min (Solubility in PBS) [µM],Solubility (Solubility in PBS) [µM],Structure (SMILES),other results
–,10,"CC(=O)N1CCC[C@]12CC=CCCCC1(CCCC=CCCCOC(=O)N3CC[C@@](C(=O)N[C@@H](Cc4ccccc4)C(=O)N[C@@H](Cc4csc5ccccc45)C(=O)N[C@H](C(N)=O)[C@@H](C)O)(C3)NC(=O)[C@H](CC(C)C)NC(=O)[C@H](Cc3ccccc3)NC(=O)[C@H](C)NC(=O)[C@H](CCCCNC(C)C)NC(=O)[C@H]([C@@H](C)O)NC(=O)[C@H](CC(=O)O)NC1=O)NC(=O)[C@H](C)NC(=O)[C@H](CC(N)=O)NC2=O (stereo partly drawn) [I-1384, Ac-PL3-Asn-Ala-B5-Asp-Thr-iPrLys-Ala-Phe-Leu-PyrS2-Phe-BztA-Thr-NH2]",–
–,50,"CC(=O)N1CCC[C@]12CC=CCCCC1(CCCC=CCCCOC(=O)N3CC[C@@](C(=O)N[C@@H](Cc4ccsc4)C(=O)N[C@@H](Cc4csc5ccccc45)C(=O)N[C@@H](CCC(N)=O)C(=O)NC4CC4)(C3)NC(=O)[C@H](CC(N)=O)NC(=O)[C@H](Cc3ccccc3)NC(=O)[C@H](C)NC(=O)[C@H](C)NC(=O)[C@H](CC(=O)O)NC(=O)[C@H](CC(=O)O)NC1=O)NC(=O)[C@H](CC(C)(C)C)NC(=O)[C@H](CC(=O)O)NC2=O (stereo partly drawn) [I-1375, PL3-Asp-Npg-B5-Asp-Asp-Ala-Ala-Phe-Asn-PyrS2-3Thi-BztA-Gln-NHCyPr]",–
–,50,"CC(=O)N1CCC[C@]12CC=CCCCC1(CCCC=CCCCOC(=O)N3CC[C@@](C(=O)N[C@H](Cc4ccccc4)C(=O)N[C@@H](Cc4csc5ccccc45)C(=O)N[C@@H](CCC(N)=O)C(N)=O)(C3)NC(=O)[C@H](CC(N)=O)NC(=O)[C@H](Cc3ccccc3)NC(=O)[C@H](C)NC(=O)[C@H](C)NC(=O)[C@H](CC(=O)O)NC(=O)[C@H](CC(=O)O)NC1=O)NC(=O)[C@H](CC(C)(C)C)NC(=O)[C@H](CC(=O)O)NC2=O (stereo partly drawn) [I-1346, PL3-Asp-Npg-B5-Asp-Asp-Ala-Ala-Phe-Asn-PyrS2-dPhe-BztA-Gln-NH2]",–
44,–,"CC(=O)N1CCC[C@]12CC=CCCCC1(CCCC=CCCCOC(=O)N3CC[C@@](C(=O)N[C@@H](Cc4cccs4)C(=O)N[C@@H](Cc4csc5ccccc45)C(=O)N[C@@H](CCC(N)=O)C(N)=O)(C3)NC(=O)[C@H](CC(C)C)NC(=O)[C@H](Cc3ccccc3)NC(=O)[C@H](C)NC(=O)[C@H](C)NC(=O)[C@H](CC(=O)O)NC(=O)[C@H](CC(=O)O)NC1=O)NC(=O)[C@H](CC(C)(C)C)NC(=O)[C@H](CC(=O)O)NC2=O (stereo partly drawn) [I-1344, PL3-Asp-Npg-B5-Asp-Asp-Ala-Ala-Phe-Leu-PyrS2-2Thi-BztA-Gln-NH2]",–

# The remaining lines, values behind:
Structure (SMILES),solubility at 15 min (Solubility in PBS) [µM],Solubility (Solubility in PBS) [µM],other results
"COc1ccccc1C[C@H](NC(=O)[C@]12CCN(C1)C(=O)OCCCC=CCCCC1(CCCC=CC[C@]3(CCCN3C(C)=O)C(=O)N[C@@H](CC(=O)O)C(=O)N[C@@H](CC(C)(C)C)C(=O)N1)C(=O)N[C@@H](CC(=O)O)C(=O)N[C@@H](CC(=O)O)C(=O)N[C@@H](C)C(=O)N[C@@H](C)C(=O)N[C@@H](Cc1ccccc1)C(=O)N[C@@H](CC(C)C)C(=O)N2)C(=O)N[C@@H](Cc1csc2ccccc12)C(=O)N[C@@H](CCC(N)=O)C(N)=O (stereo partly drawn) [I-1327, PL3-Asp-Npg-B5-Asp-Asp-Ala-Ala-Phe-Leu-PyrS2-2OMeF-BztA-Gln-NH2]",39,–,–
"CC(=O)N1CCC[C@]12CC=CCCCC1(CCCC=CCCCOC(=O)N3CC[C@@](C(=O)N[C@@H](Cc4ccccc4)C(=O)N[C@@H](Cc4csc5ccccc45)C(=O)N[C@@H](CCC(N)=O)C(N)=O)(C3)NC(=O)[C@H](CC(C)C)NC(=O)[C@H](Cc3ccccc3)NC(=O)[C@H](C)NC(=O)[C@H](C)NC(=O)[C@H]([C@@H](C)O)NC(=O)[C@H](CC(=O)O)NC1=O)NC(=O)[C@H](CC(C)(C)C)NC(=O)[C@H](CC(N)=O)NC2=O (single isomer, unassigned) [I-1285, Ac-PL3-Asn-Npg-B5-Asp-Thr-Ala-Ala-Phe-Leu-PyrS2-Phe-BztA-Gln-NH2]",–,10,–
"CC(=O)N1CCC[C@]12CC=CCCCC1(CCCC=CCCCOC(=O)N3CC[C@@](C(=O)N[C@@H](Cc4ccccc4Br)C(=O)N[C@@H](Cc4csc5ccccc45)C(=O)N[C@@H](CCC(N)=O)C(N)=O)(C3)NC(=O)[C@H](CC(C)C)NC(=O)[C@H](Cc3ccccc3)NC(=O)[C@H](C)NC(=O)[C@H](C)NC(=O)[C@H](CC(=O)O)NC(=O)[C@H](CC(=O)O)NC1=O)NC(=O)[C@H](CC(C)(C)C)NC(=O)[C@H](CC(=O)O)NC2=O (stereo partly drawn) [I-1324, PL3-Asp-Npg-B5-Asp-Asp-Ala-Ala-Phe-Leu-PyrS2-2BrF-BztA-Gln-NH2]",25,–,–
"CC(=O)N1CCC[C@]12CC=CCCCC1(CCCC=CCCCOC(=O)N3CC[C@@](C(=O)N[C@@H](Cc4ccccc4Cl)C(=O)N[C@@H](Cc4csc5ccccc45)C(=O)N[C@@H](CO)C(N)=O)(C3)NC(=O)[C@H](Cc3ccccc3)NC(=O)[C@H](Cc3ccccc3)NC(=O)[C@H](C)NC(=O)[C@H](C)NC(=O)[C@H](Cc3cccc(C(=O)O)c3)NC(=O)[C@H](CC(=O)O)NC1=O)NC(=O)[C@H](CC(C)(C)C)NC(=O)[C@H](CC(=O)O)NC2=O (stereo partly drawn) [I-1339, PL3-Asp-Npg-B5-Asp-3COOHF-Ala-Ala-Phe-Phe-PyrS2-2C1F-BztA-Ser-NH2]",–,10,–
"COc1ccccc1C[C@H](NC(=O)[C@]12CCN(C1)C(=O)OCCCC=CCCCC1(CCCC=CC[C@]3(CCCN3C(C)=O)C(=O)N[C@@H](CC(=O)O)C(=O)N[C@@H](CC(C)(C)C)C(=O)N1)C(=O)N[C@@H](CC(=O)O)C(=O)N[C@@H](CC(=O)O)C(=O)N[C@@H](C)C(=O)N[C@@H](C)C(=O)N[C@@H](Cc1ccccc1)C(=O)N[C@@H](Cc1ccccc1)C(=O)N2)C(=O)N[C@@H](Cc1csc2ccccc12)C(=O)N[C@@H](CCC(N)=O)C(N)=O (stereo partly drawn) [I-1328, PL3-Asp-Npg-B5-Asp-Asp-Ala-Ala-Phe-Phe-PyrS2-2OMeF-BztA-Gln-NH2]",26,–,–
"CC(=O)N1CCC[C@]12CC=CCCCC1(CCCC=CCCCOC(=O)N3CC[C@@](C(=O)N[C@@H](Cc4ccccc4)C(=O)N[C@@H](Cc4csc5ccccc45)C(=O)N[C@H](C(N)=O)[C@@H](C)O)(C3)NC(=O)[C@H](CC(C)C)NC(=O)[C@H](Cc3ccccc3)NC(=O)[C@H](C)NC(=O)[C@H](C)NC(=O)[C@H]([C@@H](C)O)NC(=O)[C@H](CC(N)=O)NC1=O)NC(=O)[C@H](CC(C)(C)C)NC(=O)[C@H](CC(=O)O)NC2=O (single isomer, unassigned) [I-1299, Ac-PL3-Asp-Npg-B5-Asn-Thr-Ala-Ala-Phe-Leu-PyrS2-Phe-BztA-Thr-NH2]",–,10,–
"CC(=O)N1CCC[C@]12CC=CCCCC1(CCCC=CCCCOC(=O)N3CC[C@@](C(=O)N[C@@H](CC4CCCCC4)C(=O)N[C@@H](Cc4csc5ccccc45)C(=O)N[C@@H](CCC(N)=O)C(N)=O)(C3)NC(=O)[C@H](Cc3ccccc3)NC(=O)[C@H](Cc3ccccc3)NC(=O)[C@H](C)NC(=O)[C@H](C)NC(=O)[C@H](CC(=O)O)NC(=O)[C@H](CC(=O)O)NC1=O)NC(=O)[C@H](CC(C)(C)C)NC(=O)[C@H](CC(=O)O)NC2=O (stereo partly drawn) [I-1331, PL3-Asp-Npg-B5-Asp-Asp-Ala-Ala-Phe-Phe-PyrS2-Cha-BztA-Gln-NH2]",–,10,–
"CC[C@H](C)[C@@H]1NC(=O)[C@H](CC(=O)O)NC(=O)[C@]2(CC=CCCCC3(CCCC=CCCCCCC[C@@](C)(C(=O)N[C@@H](Cc4ccccc4)C(=O)N[C@@H](Cc4csc5ccccc45)C(=O)N[C@@H](Cc4c[nH]cn4)C(N)=O)NC(=O)[C@H](CC(N)=O)NC(=O)[C@H](Cc4ccccc4)NC(=O)[C@H](C)NC(=O)[C@H](C)NC(=O)[C@H](CC(=O)O)NC(=O)[C@H](CC(=O)O)NC3=O)NC1=O)CCCN2C(C)=O (stereo partly drawn) [I-470, Ac-PL3-Asp-Ile-B5-Asp-Asp-Ala-Ala-Phe-Asn-S8-Phe-BztA-His-NH2]",–,–,"CHI Log D (CHI Log D procedure; pH 7.4): 2.394; inhibition at 10 µM ([1]; HEK293, @ 10 uM, read-out: NanoBRET % inh @ 10 uM): 14.1%; IC50 ([2]; fluorescence polarization, read-out: beta-Catenin FP IC50): 11 nM; IC50 ([2]; read-out: FP EC50): 11 nM"
"C#CCOCCOCCOCCC(=O)NCCCC[C@H](NC(=O)[C@H](CCC(N)=O)NC(=O)[C@H](Cc1csc2ccccc12)NC(=O)[C@H](Cc1ccsc1)NC(=O)[C@]12CCN(C1)C(=O)OCCCC=CCCCC1(CCCC=CC[C@]3(CCCN3C(C)=O)C(=O)N[C@@H](CC(=O)O)C(=O)N[C@@H](CC(C)(C)C)C(=O)N1)C(=O)N[C@@H](CC(=O)O)C(=O)N[C@@H](CC(=O)O)C(=O)N[C@@H](C)C(=O)N[C@@H](C)C(=O)N[C@@H](Cc1ccccc1)C(=O)N[C@@H](CC(N)=O)C(=O)N2)C(N)=O (stereo partly drawn) [I-937, Ac-PL3-Asp-Npg-B5-Asp-Asp-Ala-Ala-Phe-Asn-PyrS2-3Thi-BztA-Gln-[PropynPEG3]Lys-NH2]",–,–,"chromatographic logD (CHI Log D procedure; pH 7.4, CHI Log D): 1.94; IC50 ([1]; read-out: NanoBRET Abs IC50): 28800 nM; IC50 ([2]; read-out: beta-Catenin FP IC50): 9 nM"
